Measured values: patent publication US20150259294A1, “METHOD OF PLANT GROWTH PROMOTION USING CARBOXAMIDE DERIVATIVES” (BAYER CROPSCIENCE AG, priority 2012, published 2015)

Columns and labels:
[1] = tested on: barley leave discs; experiment: Chlorophyll preservation bioassay in barley leave discs; details: barley leaves at 3 dpt vs control at 0 dpt; formula (I) compounds in EC100 formulation, other SDHI in field formulations
Description: To confirm the greening effect of compounds of formula (I) according to the invention observed in field trials, a simple bioassay was set up using wheat and barley. Discs of 1 cm of diameter were cut within leaves collected from 4 weeks old plants and deep at room temperature in water for 1 hour to allow ethylene produced after wound injury to dissipate. Control samples were produced dipping leave discs for 15 min in a solution of 5% DMSO-10% acetone-0.005% tween80 (bioassay formulation), immediately frozen (control 0 day post treatment-dpt) or deposited on Whatmann filter paper soaked by the bioassay formulation, in Petri dishes, […] Leaves discs treated with test compound were processed in the same way. In this case, leave discs were deep for 15 minutes in test compound solution and left to incubate on filter paper soaked with the corresponding test solution. Compounds of formula (I) according to the invention were tested in EC100 formulation unless otherwise specified; Other SDHI fungicides (Fluxapyroxad, Isopyrazam and Hambra) were tested in their respective field formulations.
Leave discs were frozen in liquid nitrogen and ground prior to chlorophyll extraction with 1 mL of an acetone-water (80-20 vol/vol) solution and chlorophyll concentration evaluation at 663 nm. Percentages of chlorophyll content in 3 or 4 dpt controls and corresponding treated samples were reported to the chlorophyll content measured in 0 dpt controls.

[2] = tested on: corn; experiment: Foliar application field trial USA (FA12NARS4CUJX1): green foliage and yield in corn; format: in vivo; details: for Greening Effect (%): 100 EC, green foliage of corn at EC 79, untreated control 43; for Grain Yield (dt/ha): untreated control 39.5
Description: The field trial FA12NARS4CUJX1 was conducted in the USA (IA, 50046 Cambridge) in spring 2012.
The crop was planted on April 2012. Fertilization and herbicide applications were carried out according to the local agricultural practice.
The trial was conducted with 4 replicates. Plot size was 80 m^2 and there were four replicates.
Compound A5 was applied as a 100 EC formulation with rates of 20 and 50 g a.i./ha twice in the growing season at BBCH-growth stages EC 15 and 61.
In this trial there was no significant leaf disease severity assessed (Kabatiella zeae pest severity below 5%). It can be considered as almost disease free.
The trial was harvested on September 2012.

[3] = 20 g a.i./ha twice (EC 15 and 61)
[4] = 50 g a.i./ha twice (EC 15 and 61)

CC(C)c1ccc(Cl)cc1CN(C(=O)c1c(C(F)F)nn(C)c1F)C1CC1 [Compound A5, N-(5-chloro-2-isopropylbenzyl)-N-cyclopropyl-3-(difluoromethyl)-5-fluoro-1-methyl-1H-pyrazole-4-carboxamide]
Chlorophyll content (%) [1]: 55% | Grain Yield (% of Untreated Control) [2, 3]: 123% | Greening Effect (%) [2, 3]: 59% | Grain Yield (dt/ha) [2, 3]: 48.5 dt/ha | Grain Yield (% of Untreated Control) [2, 4]: 131% | Greening Effect (%) [2, 4]: 63% | Grain Yield (dt/ha) [2, 4]: 51.8 dt/ha | effect on maintenance of green leaves in corn (in words) ([2]; foliar sprays): clearly has an effect on the maintenance of the green leaves shortly before harvest
